Test results published in PubChem BioAssay (NCI).
Several values for one entry are separate records, joined by “and”; a condition that tells them apart may be missing. Equal entries are not always repeated.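 Assay format: 96-well plates, 48-hour exposure. Here, GI50 denotes the concentration required for 50% inhibition of growth. TGI: total growth inhibition.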

Key:
Experiment in all cases: NCI anticancer screen, dose series, 48 h
[1] = system: OVCAR-4 ovarian
[2] = system: NCI-H23 lung
[3] = system: IGROV1 ovarian
[4] = system: TK-10 renal
[5] = system: SN12C renal
[6] = system: MALME-3M melanoma
[7] = system: OVCAR-8 ovarian
[8] = system: SK-MEL-2 melanoma
[9] = system: MDA-N
[10] = system: K-562 leukemia

| Compound | TGI [1] | TGI [2] | TGI [3] | TGI [4] | TGI [5] | TGI [6] | TGI [7] | TGI [8] | TGI [9] | TGI [10] | GI50 [1] | GI50 [2] | GI50 [3] | GI50 [4] | GI50 [5] | GI50 [6] | GI50 [7] | GI50 [8] | GI50 [10] |
| --- | --- | --- | --- | --- | --- | --- | --- | --- | --- | --- | --- | --- | --- | --- | --- | --- | --- | --- | --- |
| C/C(=N/NC(N)=S)c1ccc2ccccc2c1 | > 100 µM | > 100 µM | > 100 µM | > 100 µM | > 100 µM | > 100 µM | > 100 µM | 51.1 µM | – | – | – | – | – | – | – | – | – | – | – |
| O=[N+]([O-])C(=C(N1CCCCC1)N1CCCCC1)/C(Cl)=C(\Cl)Br | 66.5 µM | 41.2 µM | 90.8 µM | 72 µM | > 100 µM | 64.9 µM | 35 µM | – | > 100 µM | 46.2 µM | – | – | – | – | – | – | – | – | – |
| CCC(C(=O)O)c1ccc(OCc2ccccc2)cc1 (stereo not drawn) | > 100 µM | > 100 µM | > 100 µM | > 100 µM | > 100 µM | > 100 µM | – | > 100 µM | – | > 100 µM | – | – | – | – | – | – | – | – | – |
| COc1ccc2c(c1)O/C(=C\c1cccc(OCC(=O)Nc3nc4c(s3)CCCC4)c1)C2=O | > 100 µM | > 100 µM | 2.17 µM | > 100 µM | > 100 µM | 5.34 µM | > 70.4 µM | > 30.6 µM | – | > 78.3 µM | > 100 µM | 5.52 µM | 0.692 µM | > 100 µM | 4.78 µM | 2.39 µM | > 21.7 µM | 12.5 µM | 4.08 µM |
| COc1cc2c(cc1OCCCCOc1cc(-c3ccc(F)cc3)nc(C)n1)N=C[C@@H]1CCCN1C2=O | 2.3 µM | 1.37 µM | 12.2 µM | 0.487 µM | 7.55 µM | 1.82 µM | 6.6 µM | 2.31 µM | – | 9.5 µM | – | – | – | – | – | – | – | – | – |
| CN(C)C(CN)CC1=C(CC(CN)N(C)C)CCC1 (stereo not drawn) | > 100 µM | > 100 µM | > 100 µM | – | > 100 µM | > 100 µM | > 100 µM | > 100 µM | – | > 100 µM | – | – | – | – | – | – | – | – | – |
| CCOC(=O)C1=C(C(C)=O)CSC(c2ccccc2)=N1 | > 100 µM | > 100 µM | > 100 µM | – | > 100 µM | > 100 µM | > 100 µM | > 100 µM | – | > 100 µM | – | – | – | – | – | – | – | – | – |
| CCN(CC)CCNc1ccc2nnn3c4ccc(OC)cc4c(=O)c1c23 | 19.9 µM | 20.9 µM | 22.9 µM | 23.9 µM | 19.9 µM | 22.3 µM | 19.9 µM | 27.4 µM | – | 20.1 µM | – | – | – | – | – | – | – | – | – |
| CSC1CC2C(CC1(C)O)C2(C)C (stereo not drawn) | > 100 µM | > 100 µM | > 100 µM | > 100 µM | > 100 µM | > 100 µM | > 100 µM | > 100 µM | – | > 100 µM | – | – | – | – | – | – | – | – | 49.7 µM and > 100 µM |
| Cc1nn(C(=O)Cc2ccccc2)c2c1C(c1ccccc1O)SC(N)=N2 (stereo not drawn) | – | > 100 µM | > 100 µM | > 100 µM | > 100 µM | > 100 µM | > 100 µM | – | – | > 100 µM | – | – | – | – | – | – | – | – | – |
| CC(C)(C)C1=Cc2cc3cc(C(C)(C)C)[nH]c(=O)c3cc2S(=O)(=O)N1 | > 100 µM | 85.3 µM | – | 88.3 µM | > 100 µM | 57.7 µM | > 100 µM | 38.2 µM | – | > 100 µM | – | – | – | – | – | – | – | – | – |
| CCOC(=O)c1[nH]cc(C)c1-c1ccn(-c2ccccc2)c1 | > 100 µM | > 100 µM | 55.9 µM | > 100 µM | > 100 µM | – | > 100 µM | > 100 µM | > 100 µM | 51 µM | – | – | – | – | – | – | – | – | – |
| Nc1nn2c(C(Br)Br)cc(C(Br)Br)nc2c1[N+](=O)[O-] | – | 4.61 µM | 3.38 µM | 2.28 µM | – | 2.14 µM | – | – | 2.26 µM | 0.857 µM | – | – | – | – | – | – | – | – | – |
| CCCCN1CCN(c2ccc3nc(-c4ccc5nc(-c6ccc(C(F)(F)F)cc6)[nH]c5c4)[nH]c3c2)CC1 | 2.39 µM | 3.42 µM | – | 3.68 µM | 3.21 µM | – | 2.64 µM | 3.31 µM | – | – | 0.859 µM | 1.68 µM | – | 2.21 µM | 1.61 µM | – | 1.24 µM | 1.76 µM | – |
| O=C(CP(=O)(O)O)c1cccs1 | – | > 100 µM | > 100 µM | > 100 µM | > 100 µM | > 100 µM | > 100 µM | > 100 µM | – | > 100 µM | – | – | – | – | – | – | – | – | – |
| Cc1cc2c(C)cc(=O)[nH]c2cc1N | > 100 µM | > 100 µM | > 100 µM | – | > 100 µM | – | > 100 µM | – | > 100 µM | > 100 µM | – | – | – | – | – | – | – | – | – |
| COC(=O)c1ccccc1/C=C1/Cc2ccccc2C1=O | > 100 µM | > 100 µM | 88.7 µM | > 100 µM | 36.5 µM | > 100 µM | > 100 µM | – | > 100 µM | > 100 µM | – | – | – | – | – | – | – | – | – |
